Test results reported in US20220389061A1, “IMMUNOMODULATORS” (priority 2019, published 2022).
Starred links: 1 amine or outer side, 2 acyl side, 3 side chain; linkers in the order of their positions; H or OH if unused. Positions of bridges follow the written chain, without caps; N, C: chain ends. Non-standard residues stand in square brackets, D forms with d. Residues, ends and D or L forms follow the SMILES beside them. Groups on a side chain read outwards from the residue. *: point of attachment. Trp(1-CH2CO2Me) = COC(=O)Cn1cc(C[C@H](N)C(=O)O)c2ccccc21; Trp(1-CH2COOH) = N[C@@H](Cc1cn(CC(=O)O)c2ccccc12)C(=O)O; NH(2-CF3-phenyl) = FC(F)(F)c1ccccc1N*; X83 = FC(F)(F)c1cc(N*)cc(C(F)(F)F)c1; Hyp = O=C(O)[C@@H]1C[C@@H](O)CN1; X34 = O=C(c1c2ccccc2cc2ccccc12)*; X47 = O=C(c1cn2c(n1)sc1ccccc12)*; NMeNle = CCCC[C@H](NC)C(=O)O; NMeA = CN[C@@H](C)C(=O)O; Dab = NCC[C@H](N)C(=O)O; X39 = CCCCOc1ccc(N*)cc1; Dap = NC[C@H](N)C(=O)O; CO = O=C([*:1])[*:2]

Target: T1, PD-1/PD-L1 (Homo sapiens, UniProt Q9NZQ7)
T1 construct: TVMV protease site linker (C); made in house; host or cells: HEK293T cells
Experiment: PD-1/PD-L1 Homogenous Time-Resolved Fluorescence (HTRF) binding assay
Conditions: PD-L1-His 10 nM pre-incubated with inhibitor, PD-1-Ig 20 nM; read-out: HTRF IC50
Method in brief: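 HTRF read-out using europium cryptate anti-Ig (1 nM) and APC anti-His (20 nM) on extracellular-domain fusion proteins in dPBS/0.1% BSA/0.05% Tween-20. Inhibitor first incubated 15 min with 10 nM PD-L1-His, followed by 20 nM PD-1-Ig for another 15 min.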

T1 sequence (Q9NZQ7 18-239): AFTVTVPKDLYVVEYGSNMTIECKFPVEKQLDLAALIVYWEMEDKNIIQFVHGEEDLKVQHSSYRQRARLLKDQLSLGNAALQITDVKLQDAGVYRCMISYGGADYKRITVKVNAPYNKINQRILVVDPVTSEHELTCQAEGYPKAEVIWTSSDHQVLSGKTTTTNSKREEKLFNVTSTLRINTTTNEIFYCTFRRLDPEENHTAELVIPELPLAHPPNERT

Row | SMILES | IC50 [nM]
1 | CCCC[C@H]1C(=O)N(C)[C@@H](CCCC)C(=O)N[C@@H](CC(C)C)C(=O)N[C@H](C(=O)NCC(N)=O)CSCC(=O)N[C@@H](Cc2ccc(O)cc2)C(=O)N(C)[C@@H](C)C(=O)N[C@@H](CC(N)=O)C(=O)N2CCC[C@H]2C(=O)N[C@@H](CNC(=O)c2c3ccccc3cc3ccccc23)C(=O)N[C@@H](CC(C)C)C(=O)N2C[C@H](O)C[C@H]2C(=O)N[C@@H](Cc2c[nH]c3ccccc23)C(=O)N[C@@H](CCNC(=O)c2c3ccccc3cc3ccccc23)C(=O)N[C@@H](Cc2cn(CC(=O)OC)c3ccccc23)C(=O)N1C [Example 2006] ({CH2CO}-Y[NMeA]NP[Dap](X34)L[Hyp]W[Dab](X34)[Trp(1-CH2CO2Me)][NMeNle][NMeNle]LCG-NH2; thioether N-14) | 1590
2 | CCCC[C@H]1C(=O)N(C)[C@@H](CCCC)C(=O)N[C@@H](CC(C)C)C(=O)N[C@H](C(=O)NCC(N)=O)CSCC(=O)N[C@@H](Cc2ccc(O)cc2)C(=O)N(C)[C@@H](C)C(=O)N[C@@H](CC(N)=O)C(=O)N2CCC[C@H]2C(=O)N[C@@H](CNC(=O)c2cn3c(n2)sc2ccccc23)C(=O)N[C@@H](CC(C)C)C(=O)N2C[C@H](O)C[C@H]2C(=O)N[C@@H](Cc2c[nH]c3ccccc23)C(=O)N[C@@H](CCNC(=O)c2cn3c(n2)sc2ccccc23)C(=O)N[C@@H](Cc2cn(CC(=O)OC)c3ccccc23)C(=O)N1C [Example 2001] ({CH2CO}-Y[NMeA]NP[Dap](X47)L[Hyp]W[Dab](X47)[Trp(1-CH2CO2Me)][NMeNle][NMeNle]LCG-NH2; thioether N-14) | 184

Next, values leading:

Row | IC50 [nM] | SMILES
3 | 13 | CCCCOc1ccc(NC(=O)NC[C@@H]2NC(=O)[C@@H]3CCCN3C(=O)[C@H](CC(N)=O)NC(=O)[C@H](C)N(C)C(=O)[C@H](Cc3ccc(O)cc3)NC(=O)CSC[C@@H](C(=O)NCC(N)=O)NC(=O)[C@H](CC(C)C)NC(=O)[C@H](CCCC)N(C)C(=O)[C@H](CCCC)N(C)C(=O)[C@H](Cc3cn(CC(=O)O)c4ccccc34)NC(=O)[C@H](CCN)NC(=O)[C@H](Cc3c[nH]c4ccccc34)NC(=O)[C@@H]3C[C@@H](O)CN3C(=O)[C@H](CC(C)C)NC2=O)cc1 [Example 1139] ({CH2CO}-Y[NMeA]NP[Dap]([CO-X39])L[Hyp]W[Dab][Trp(1-CH2COOH)][NMeNle][NMeNle]LCG-NH2; thioether N-14)
4 | 20 | CCCC[C@H]1C(=O)N(C)[C@@H](CCCC)C(=O)N[C@@H](CC(C)C)C(=O)N[C@H](C(=O)NCC(N)=O)CSCC(=O)N[C@@H](Cc2ccc(O)cc2)C(=O)N(C)[C@@H](C)C(=O)N[C@@H](CC(N)=O)C(=O)N2CCC[C@H]2C(=O)N[C@@H](CNC(=O)Nc2ccccc2C(F)(F)F)C(=O)N[C@@H](CC(C)C)C(=O)N2C[C@H](O)C[C@H]2C(=O)N[C@@H](Cc2c[nH]c3ccccc23)C(=O)N[C@@H](CCNC(=O)Nc2ccccc2C(F)(F)F)C(=O)N[C@@H](Cc2cn(CC(=O)O)c3ccccc23)C(=O)N1C [Example 1137] ({CH2CO}-Y[NMeA]NP[Dap]([CO-NH(2-CF3-phenyl)])L[Hyp]W[Dab]([CO-NH(2-CF3-phenyl)])[Trp(1-CH2COOH)][NMeNle][NMeNle]LCG-NH2; thioether N-14)
5 | 274 | CCCC[C@H]1C(=O)N(C)[C@@H](CCCC)C(=O)N[C@@H](CC(C)C)C(=O)N[C@H](C(=O)NCC(N)=O)CSCC(=O)N[C@@H](Cc2ccc(O)cc2)C(=O)N(C)[C@@H](C)C(=O)N[C@@H](CC(N)=O)C(=O)N2CCC[C@H]2C(=O)N[C@@H](CNC(=O)Nc2cc(C(F)(F)F)cc(C(F)(F)F)c2)C(=O)N[C@@H](CC(C)C)C(=O)N2C[C@H](O)C[C@H]2C(=O)N[C@@H](Cc2c[nH]c3ccccc23)C(=O)N[C@@H](CCNC(=O)Nc2cc(C(F)(F)F)cc(C(F)(F)F)c2)C(=O)N[C@@H](Cc2cn(CC(=O)O)c3ccccc23)C(=O)N1C [Example 1015] ({CH2CO}-Y[NMeA]NP[Dap]([CO-X83])L[Hyp]W[Dab]([CO-X83])[Trp(1-CH2COOH)][NMeNle][NMeNle]LCG-NH2; thioether N-14)
